Consider two compounds from article PMC5367033, “Inhibitors of BRD4 Protein from a Marine-Derived Fungus Alternaria sp. NH-F6” (Marine Drugs, 2017).

Structures are written as SMILES.

This assay addresses T1, BRD4 (Homo sapiens, UniProt O60885).
T1 construct: His-tagged BRD4-BD1 (bromodomain 1)
Kind of assay: TR-FRET (HTRF) displacement of biotin-labeled peptide ligand from BRD4-BD1; single dose, […]. It counts as biochemical. To be noted: read-out: Inhibition Rate / 10 μM. (In general: TR-FRET usually uses a lanthanide donor and a delayed reading to cut background.)

Regarding `O=C1C=Cc2c3c4c(c(O)ccc4c4ccc(O)c1c24)[C@H](O)[C@H](O)[C@H]3O` [compound 2, 3,11α,12β,13β,16-Pentahydroxy-11,12-dihydroperylen-6(13H)-one], the inhibition at 10 µM is 88.1%. For `O=C1CC[C@]2(O)c3c(ccc(O)c31)-c1ccc(O)c3c1C2[C@@H](O)[C@@H](Cl)[C@H]3O` (stereo partly drawn) [compound 1, 12β-Chloro-3,9α,11β,13β,16-pentahydroxy-8,9,10,11,12,13-hexahydro-6(7H)-one], the inhibition at 10 µM amounted to 57.7%.
